Assay results from PubChem BioAssay (NCI).
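A five-concentration, 48-hour dose response in 96-well plates underlies each endpoint, interpolated linearly between surrounding concentrations. TGI marks complete inhibition of growth.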

Legend:
Test in all cases: NCI-60 cell line screen, 48 h
TK-10 renal = system: TK-10 renal
SK-OV-3 ovarian = system: SK-OV-3 ovarian
NCI-H226 lung = system: NCI-H226 lung
SN12C renal = system: SN12C renal
RPMI-8226 leukemia = system: RPMI-8226 leukemia
U251 CNS = system: U251 CNS
MOLT-4 leukemia = system: MOLT-4 leukemia
SK-MEL-2 melanoma = system: SK-MEL-2 melanoma
LOX IMVI melanoma = system: LOX IMVI melanoma
HCT-15 colon = system: HCT-15 colon
MALME-3M melanoma = system: MALME-3M melanoma
NCI-H23 lung = system: NCI-H23 lung
CAKI-1 renal = system: CAKI-1 renal
UACC-62 melanoma = system: UACC-62 melanoma
EKVX NSCLC = system: EKVX NSCLC
HOP-92 NSCLC = system: HOP-92 NSCLC
SNB-19 CNS = system: SNB-19 CNS
OVCAR-3 ovarian = system: OVCAR-3 ovarian
HT29 colon = system: HT29 colon
OVCAR-4 ovarian = system: OVCAR-4 ovarian

Structure (SMILES) | TGI (TK-10 renal) [µM] | TGI (SK-OV-3 ovarian) [µM] | TGI (NCI-H226 lung) [µM] | TGI (SN12C renal) [µM] | TGI (RPMI-8226 leukemia) [µM] | TGI (U251 CNS) [µM] | TGI (MOLT-4 leukemia) [µM] | TGI (SK-MEL-2 melanoma) [µM] | TGI (LOX IMVI melanoma) [µM] | TGI (HCT-15 colon) [µM] | TGI (MALME-3M melanoma) [µM] | TGI (NCI-H23 lung) [µM] | TGI (CAKI-1 renal) [µM] | TGI (UACC-62 melanoma) [µM] | TGI (EKVX NSCLC) [µM] | TGI (HOP-92 NSCLC) [µM] | TGI (SNB-19 CNS) [µM] | TGI (OVCAR-3 ovarian) [µM] | TGI (HT29 colon) [µM] | TGI (OVCAR-4 ovarian) [µM]
COc1ccc(/C(Cl)=C(\C=O)c2ccc(F)cc2)cc1OC | > 100 | 77.2 | 47.2 | 77.1 | 46.3 | 33.6 | 71.7 | 39.4 | 30.7 | 83.3 | 72 | 66.6 | 63.2 | 61.6 | 65.4 | 29.3 | > 100 | 64.6 | 36.3 | –
N=C(N)c1ccc(N=Nc2c(O)ccc3c2[nH]c2ccccc23)cc1 | > 95.3 | 79.9 | > 90.6 | > 83.4 | 5.07 | – | 5.27 | > 100 | – | > 100 | > 80.8 | > 100 | > 100 | > 100 | > 100 | > 100 | > 100 | 5.67 | > 100 | > 28.5
COc1ccc2nc3ccccc3c(NCCCCCCN(CCCl)CCCl)c2c1 | 23.8 | 2.74 | 1.53 | – | – | 1.57 | – | – | 0.0394 | – | – | – | 0.197 | – | 4.22 | – | 3.45 | 3.14 | 1.28 | 1.05
COC(=O)C1=C(C(=O)OC)SC2(S1)C1=C(CCCC1)SC(C(=O)OC)=C2C(=O)OC | 24.7 | 28.1 | – | 14.6 | 17.7 | 19.4 | 11.6 | 30 | 5.3 | 18.1 | 24.3 | 31.3 | 13.5 | 25.7 | 26.6 | 18.3 | 30.2 | 18.9 | 11.7 | 25.3
